“Also recorded” adds a separate entry of the source. Where two headings read alike, the source gives them in different places.
Columns and labels:
[1] = Acute subjective effects of LSD (VAS, 5D-ASC) by genotype, pooled phase 1 studies; assay type: in vivo, humans
Description: The Visual Analog Scales (VASs, FIG. 14, Table S5) were presented as 100 mm horizontal lines (0-100%), marked from “not at all” on the left to “extremely” on the right. Subjective effects like “closeness”, “talkative”, “open”, “concentration”, “speed of thinking”, and “trust” were bidirectional (±50 mm). The VASs were applied before and 0, 0.5, 1, 1.5, 2, 2.5, 3, 4, 5, 6, 7, 8, 9 and 10 h after LSD or placebo administration.
The 5 Dimensions of Altered States of Consciousness (5D-ASC) scale (Dittrich, 1998; Studerus et al., 2010) was administered at the end of the acute drug effects to retrospectively rate peak drug responses. The main subscales describing alterations of consciousness are Oceanic Boundlessness (OB), Anxious of Ego Dissolution (AED), Visionary Restructuralization (VR) (FIG. 16).

[2] = Autonomic (physiological) effects of LSD, pooled phase 1 studies; assay type: in vivo, humans
Description: Blood pressure, heart rate, and body temperature were assessed repeatedly before and 0, 0.5, 1, 1.5, 2, 2.5, 3, 4, 5, 6, 7, 8, 9, and 10 h after LSD or placebo administration. Systolic and diastolic blood pressure and heart rate were measured using an automatic oscillometric device (OMRON Healthcare Europe NA, Hoofddorp, Netherlands). The measurements were performed in duplicate at an interval of 1 minute and after a resting time of at least 5 minutes. The averages were calculated for the analysis. Mean arterial pressure (MAP) was calculated as diastolic blood pressure+(systolic blood pressure−diastolic blood pressure)/3. The rate pressure product (RPP) was calculated as systolic blood pressure×heart rate. Core (tympanic) temperature was measured using a Genius 2 ear thermometer (Tyco Healthcare Group LP, Watertown, N.Y., USA).

[3] = cited from earlier work; for duration of LSD effects (mean±SD) / duration of LSD effects (range): Dolder et al., 2017b
[4] = Holze et al., 2021b; cited from earlier work
[5] = cited from earlier work; for subjects with bad drug effects (50% or more on a 0-100% scale at any time point): Dolder et al., 2017a
[6] = human, Dolder et al., 2015; cited from earlier work
[7] = system: cytochrome P450 enzymes (CYPs); conditions: human liver microsomes; cited from earlier work
[8] = system: cytochrome P450 enzymes (CYPs); conditions: human liver S9 fraction; cited from earlier work
[9] = Pharmacokinetics of LSD by CYP genotype, pooled analysis of four phase 1 studies; conditions: for Cmax: human, oral, 100 ug, LSD Cmax, compartmental modeling, 100 μg LSD dose, mean±SD
[10] = non-compartmental analysis, plasma
[11] = non-functional vs functional CYP2D6

## CCN(CC)C(=O)[C@@H]1C=C2c3cccc4[nH]cc(c34)C[C@H]2N(C)C1 [LSD, Lysergic acid diethylamide]
[1]; 5D-ASC
  alterations of the mind (5D-ASC total, AED and VR subscales), CYP2D6 PMs compared with functional CYP2D6 subjects: significantly greater alterations of the mind
[1]; HTR1A rs6295
  5D-ASC total score and VR subscale, homozygous carriers of HTR1A rs6295 G allele vs carriers of a C allele: rated lower; also recorded: lower total 5D-ASC, Visionary Restructuralization, and Blissful State ratings
[1]; HTR2A rs6313
  5D-ASC total score and AED subscale, carriers of two HTR2A rs6313 A alleles vs G allele carriers: lower ratings; also recorded: lower alterations of the mind
[1]; VAS any drug effect
  duration of the acute subjective response, CYP2D6 PMs compared with functional CYP2D6 subjects: substantially longer duration; also recorded: longer subjective effect durations
[1]; healthy subjects
  acute subjective effects compared to placebo: significant acute subjective effects on all scales
[2]; HTR1A, HTR1B, HTR2A genotypes
  vital parameters, effect of 5-HT receptor genotypes: not affected
[2]; healthy subjects
  blood pressure, heart rate, and body temperature compared to placebo: moderately increased
[2]; in vivo
  effect of CYP2D6 genotype on the autonomic response: no relevant effect
[3]; 100 μg
  duration of LSD effects (mean±SD): 8.2 ± 2.1 h
  duration of LSD effects (range): 5 to 14 h
[3]; 100 μg, Holze et al., 2019
  duration of subjective effects (mean±SD): 8.5 ± 2.0 h
  duration of subjective effects (range): 5.3 to 12.8 h
[3]; 200 μg
  duration of LSD effects (mean±SD): 11.6 ± 1.7 h
  duration of LSD effects (range): 7 to 19.5 h
[4]
  5D-ASC OB, AED and anxiety ratings, 200 μg compared to 100 μg: did not result in higher OB ratings but increased AED and anxiety
[5]; 100 μg, 3 of 24 subjects
  subjects with bad drug effects (50% or more on a 0-100% scale at any time point): 12.5%
[5]; 100 μg, 7 of 24 subjects, Holze et al., 2019a
  subjects with transient bad drug effects: 29%
[5]; 200 μg, 9 of 16 subjects
  subjects with bad drug effects (50% or more on a 0-100% scale at any time point): 56%
[5]; 200 μg, sixteen healthy humans, Schmid et al., 2015
  subjects with marked anxiety: two
[6]
  parent drug excreted in urine: ~1%
[7]
  CYPs contributing to the N-demethylation of LSD to 6-nor-LSD (Nor-LSD): CYP2D6, 3A4, and 2E1
  CYPs taking part in the formation of the main metabolite 2-oxo-3-hydroxy-LSD (O-H-LSD): CYP2C9, CYP1A2, CYP2E1, and CYP3A4
[8]
  CYPs contributing to the hydroxylation of LSD: CYP1A2 and CYP3A4
  CYPs involved in the formation of Nor-LSD: CYP2C19 and 3A4
[9]; CYP1A2, CYP2B6, CYP2C19, CYP2C9
  effect of genetic polymorphisms of other CYPs on pharmacokinetics or subjective or autonomic effects: no relevant effect
[9]; CYP2D6 activity score groups
  exposure to LSD with lower CYP2D6 activity across all CYP2D6 genotype activity score groups: significantly higher exposure
[9]; LSD AUC∞ z-score vs body weight
  effect of sex or body weight on pharmacokinetics / concentration of LSD in plasma: no relevant effect; also recorded: did not relevantly alter
[9]; plasma, CYP2D6 PMs (non-functional, N=7)
  Cmax: 2.37 ± 0.891 ng/mL
[9]; plasma, functional CYP2D6 subjects (N=74)
  Cmax: 2.06 ± 0.999 ng/mL
[9]; [10]
  AUC∞ and AUC10 values, CYP2D6 PMs compared with functional CYP2D6 carriers: significantly larger
  Cmax, effect of CYP2D6 function: not significantly affected
[9]; [11]
  area under the curve blood plasma concentration (total drug exposure), higher in CYP2D6 poor metabolizers than in functional CYP2D6 carriers: approximately 75%
  half-life (T1/2), CYP2D6 PMs compared with functional CYP2D6 subjects: longer
[9]; non-functional vs functional CYP2D6, non-significant
  mean peak concentration, higher in CYP2D6 PMs than in functional CYP2D6: approximately 15%

## CCN(CC)C(=O)[C@@H]1C=C2c3cccc4c3C(O)(C[C@H]2N(C)C1)C(=O)N4 (stereo partly drawn) [O-H-LSD, 2-oxo-3-hydroxy LSD]
[9]; metabolite in plasma after LSD administration
  AUC∞ values, CYP2D6 PMs compared with functional CYP2D6 subjects: larger
[9]; [11]
  area under the curve blood plasma concentration (total drug exposure), higher in CYP2D6 poor metabolizers than in functional CYP2D6 carriers: approximately 75%

From US20220280501A1, “USING GENO- OR P[…] ADJUST LSD DOSING” (Universitätsspital Basel, priority 2021, published 2022)
